# Measured values taken from US20260263576A1, “DNA VACCINE TARGETING OVEREXPRESSED ANTIGENS IN COLORECTAL CANCER” (UNIVERSITY OF WASHINGTON, priority 2023, published 2026).
# Key:
# [1] = tested on: splenocytes stimulated with the vaccine peptide pool; assay: Antigen-specific IFN-γ ELISPOT of splenocytes, ApcMin/+ mice; type: in vivo; details: any regimen of naproxen, adjuvant only
# Description: (§1) Analysis of peptide-specific T-cell responses. […] Data are reported as pg/ml.
# [2] = tested on: tumor infiltrating lymphocytes; assay: Immunophenotyping of tumor infiltrating lymphocytes, ApcMin/+ mice; type: in vivo; details: APC^Min/+
# Experimental: (§2) Immunophenotyping. After removing up to 10 polyps in ApcMin/+, and 1-2 polyps in AOM treated mice, remaining tumors were removed from the intestinal tissue with forceps and applied to a 70 μm filter, washed through with flow cytometry buffer (PBS/1% FBS/2 mM EDTA) and red cells lysed. […] Prior to surface staining, cells were stained with Fixable viability dye 450 (eBiosciences; 1:1000) in PBS and then washed in flow cytometry buffer. Intracellular staining was performed using the FOXP3 buffer set (Thermo Fisher Scientific). Antibodies were obtained from BD Bioscience, Biolegend or Thermo Fisher Scientific. […] Analysis was performed on FACS Canto RUO and data analyzed using FlowJo software (BD Biosciences). […] Results are reported as a percentage of total cell number or a percentage of a specific cell population.
# Granzyme B = Granzyme B ELISA of ELISPOT supernatant, ApcMin/+ mice; type: in vivo
# Description: as §1
# [3] = tested on: tumors from Apc^Min/+ mice; assay: Immunohistochemistry of tumors (CD8, PD-L1), ApcMin/+ mice; type: in vivo; details: naproxen intermittently or continuously, p<0.001
# Experimental: Immunohistochemistry. Tumors removed from the intestine were covered with Tissue-Tek O.C.T Compound in a cryomold and stored at −80° C. Frozen blocks were sectioned and fixed with 75% acetone/25% methanol for 5 minutes. The slides were washed thrice with PBS and 10% goat serum was added for 1 hour at room temperature followed by an anti-mouse PD-L1 (abcam; clone: MIH6; 1/100 dilution) or anti-mouse CD8 (AbD Serotec; clone KT15; 1/200 dilution) overnight at 4° C. After washing, the slides were incubated with AlexaFluor 488 anti-rat IgG (abcam; 1:1000 dilution) for 1 hour at room temperature. Positive cells were counted in three 20× microscopic fields and expressed as the mean percent of total cells.
# [4] = tested on: tumor infiltrating lymphocytes; assay: Immunophenotyping of tumor infiltrating lymphocytes, AOM-treated mice; type: in vivo
# Experimental: as §2
# human PBMC = assay: Th ratio from IFN-γ and IL-10 ELISPOT, human PBMC screening; type: cell-based
# Experimental: Vaccine. The vaccine consisted of the Th1-selective epitopes CDC25B-p132-156, COX2-p76-93, COX2-p276-295, EGFR-p880-895, and p962-976. The Th selective epitopes were determined in human PBMC screening by calculating the ratio of the product of the mean magnitude and percent incidence of response for IFN-γ and IL-10 ELISPOT assays (IFN-γ incidence X magnitude/IL-10 incidence X magnitude). Ratios greater than 7 defined Th1-selective epitopes (See Table 4).
compound,measurement,setting,value
COc1ccc2cc([C@H](C)C(=O)O)ccc2c1 [naproxen],antigen-specific IFN-γ,[1],did not result in increased
same,% CD4 of CD3+,[2]; CON naproxen,30%
same,% CD8 of CD3+,[2]; CON naproxen,35%
same,% CM of CD4+,[2]; CON naproxen,14%
same,% CM of CD8+,[2]; CON naproxen,4%
same,% EM of CD4+,[2]; CON naproxen,60%
same,% EM of CD8+,[2]; CON naproxen,48%
same,% Foxp3 of CD4,[2]; CON naproxen,4%
same,% GATA3 of CD4+,[2]; CON naproxen,5%
same,% MDSC,[2]; CON naproxen,1%
same,% PD1 of CD4+,[2]; CON naproxen,3%
same,% PD1 of CD8+,[2]; CON naproxen,7%
same,% Tbet of CD3,[2]; CON naproxen,9%
same,% CD4 of CD3+,[2]; INT naproxen,14%
same,% CD8 of CD3+,[2]; INT naproxen,15%
same,% CM of CD4+,[2]; INT naproxen,18%
same,% CM of CD8+,[2]; INT naproxen,2%
same,% EM of CD4+,[2]; INT naproxen,41%
same,% EM of CD8+,[2]; INT naproxen,44%
same,% Foxp3 of CD4,[2]; INT naproxen,2%
same,% GATA3 of CD4+,[2]; INT naproxen,4%
same,% MDSC,[2]; INT naproxen,4%
same,% PD1 of CD4+,[2]; INT naproxen,5%
same,% PD1 of CD8+,[2]; INT naproxen,7%
same,% Tbet of CD3,[2]; INT naproxen,11%
same,"Granzyme B levels, in words",Granzyme B,did not result in increased
same,tumor cell expression of PD-L1,[3],reduced
same,tumor infiltrating CD8+ T-cells,[3],increased
same,% CD4 of CD3+,[4]; CON naproxen,61%
same,% CD8 of CD3+,[4]; CON naproxen,12%
same,% CM of CD4+,[4]; CON naproxen,6%
same,% CM of CD8+,[4]; CON naproxen,8%
same,% EM of CD4+,[4]; CON naproxen,43%
same,% EM of CD8+,[4]; CON naproxen,52%
same,% Foxp3 of CD4,[4]; CON naproxen,5%
same,% GATA3 of CD4+,[4]; CON naproxen,2%
same,% MDSC,[4]; CON naproxen,6%
same,% PD1 of CD4+,[4]; CON naproxen,3%
same,% PD1 of CD8+,[4]; CON naproxen,4%
same,% Tbet of CD3,[4]; CON naproxen,10%
same,% CD4 of CD3+,[4]; INT naproxen,66%
same,% CD8 of CD3+,[4]; INT naproxen,11%
same,% CM of CD4+,[4]; INT naproxen,6%
same,% CM of CD8+,[4]; INT naproxen,6%
same,% EM of CD4+,[4]; INT naproxen,48%
same,% EM of CD8+,[4]; INT naproxen,53%
same,% Foxp3 of CD4,[4]; INT naproxen,5%
same,% GATA3 of CD4+,[4]; INT naproxen,3%
same,% MDSC,[4]; INT naproxen,6%
same,% PD1 of CD4+,[4]; INT naproxen,4%
same,% PD1 of CD8+,[4]; INT naproxen,4%
same,% Tbet of CD3,[4]; INT naproxen,9%
CDC25b-p132-156: peptide IQAASRIIRNEQFAIRRFQSMPVRL (SEQ ID NO: 1),Th ratio (IFN-γ incidence X magnitude/IL-10 incidence X magnitude),human PBMC,186
COX2-p276-295: peptide EVFGLVPGLMMYATIWLREH (SEQ ID NO: 3),Th ratio (IFN-γ incidence X magnitude/IL-10 incidence X magnitude),human PBMC,17
COX-2-p76-93: peptide YILTHFKGFWNVVNNIPF (SEQ ID NO: 2),Th ratio (IFN-γ incidence X magnitude/IL-10 incidence X magnitude),human PBMC,7
